In paper PMC2408963, “A Detailed Analysis of the Murine TAP Transporter Substrate Specificity” (PLoS ONE, 2008):
Where no end group is shown, it is not given here.

Assays:
[1] = test system: human TAP complexes; experiment: Fluorescence polarization assay with insect cell-expressed human TAP; assay type: binding
[2] = test system: murine TAP1 or TAP2 protein alone
Source text: Using the same insect cell system for TAP expression, a novel assay was established which is based on detecting fluorescence polarization rather than the activity of a radioactive tracer. […] To establish a fluorescence polarization assay, we determined the concentrations of reporter peptide and microsomes yielding the highest specific binding signal (mP reading).

R9L-FITC: reporter peptide in which position 6 (Ser) of R9L was substituted by a Cys residue coupled to a fluorescein group (RRYNAC(fluorescein)TEL)
affinity for human TAP compared with murine TAP [1]: identical affinity
binding to microsomes containing either murine TAP1 or TAP2 protein alone [2]: did not bind
